Results taken from patent US20240065988A1, “COMBINED USE OF KETAMINE AND RETIGABINE (EZOGABINE) FOR THE TREATMENT OF PSYCHIATRIC DISORDERS” (Yeda Research and Development Co. Ltd., priority 2021, published 2024).
“Also recorded” adds a separate entry of the source.

Columns and labels:
[1] = test system: Kcnq2 mRNA in glutamatergic neurons of the vHipp; assay: qPCR mRNA levels in FACS-sorted glutamatergic neurons (Ai9+/tdTomato+) and remaining cells (Ai9-/tdTomato-) of Nex-Cre-Ai9 mice; format: in vivo, mouse; conditions: for mRNA levels of 8 top DEGs: ketamine vs saline
Source text: Conditional transgenic mice expressing tdTomato in glutamatergic neurons of the forebrain (Nex-Cre;Ai9) were generated by crossing homozygous Nex-Cre mice [described in S. Goebbels et al., Genesis (2006) 44: 611-621] with homozygous Ai9 mice [Gt(ROSA)26Sortm9(CAG-tdTomato)Hze] [described in L. Madisen et al., Nat Neurosci (2010) 13: 133-140].
In order to further investigate these findings, a conditional reporter mouse line (Nex-Cre-Ai9) was generated where most glutamatergic neurons of the forebrain, including the hippocampus, are fluorescently labeled by tdTomato (Ai9) except for neurons in the dentate gyrus where Neurod6, the promoter used to target glutamatergic neurons driving Cre expression, is not expressed (FIG. 12) [J. Hartmann et al., Mol Psychiatry (2017) 22: 466-475]. Following the same paradigm used in the original cohort, mice were group-housed and injected with (R,S)-ketamine (10 mg/kg BW) or a saline vehicle control. The vHipp of these mice was dissected […] later (i.e. 2 days). Single-cell suspensions were prepared and individual cells were sorted using fluorescence activated cell sorting (FACS) (FIG. 2A) into two separate pools of cells from each mouse. One pool contained glutamatergic neurons (Ai9+) and a second contained all remaining cell types of the vHipp (Ai9-) (FIG. 2A and FIGS. 13A-C). […] These two separate pools of cells were then used to validate the scRNA-seq findings in glutamatergic neurons at the population level using quantitative real-time polymerase chain reaction (qPCR).
Next, it was tested whether retigabine can produce similar synergistic effects in combination with traditional antidepressants.

[2] = test system: ventral hippocampus bulk tissue; assay: Bulk qPCR mRNA levels in brain punches (tissue homogenates) from the vHipp; format: in vivo, mouse; conditions: ketamine 10 mg/kg, 2 days
[3] = test system: primary hippocampal neurons; assay: qPCR mRNA expression in primary hippocampal neurons treated with ketamine or HNKet; format: cell-based, mouse; conditions: 10 μM
Description: Primary hippocampal neurons were generated from E16.5 embryos using a standard primary neuron cell culture protocol previously described [K. G. Schraut et al., Eur JNeurosci (2021) 53: 390-401]. Briefly, dissected hippocampi were harvested in ice-cold dissection medium (HBSS, 7 mM HEPES, 2 mM L-glutamine, 500 U/ml penicillin-streptomycin, all Thermo Fisher Scientific). The tissue was incubated for 10 minutes in 0.25% Trypsin-EDTA with 8 mM HEPES (Thermo Fisher Scientific) in a water bath at 37° C. Tissue was washed three times with serum medium (DMEM, 10% FBS, Thermo Fisher Scientific). The cells were dissociated by titration using glass Pasteur pipets 10 in serum medium and filtered with a 70 tm cell strainer (Corning). Cell culture plates were coated overnight with 0.05 mg/ml poly-D-lysine mol wt 70,000-150,000 (Sigma Aldrich) in 0.15 M borate buffer (pH=8.5). Cells were seeded in 24-well plates at a density of 5×10^4 cells in 1 ml growth medium (Neurobasal A medium, 1 x B27 supplement, 0.25×GlutaMAX, all Thermo Fisher Scientific) per well. All cultures were kept in a humidified incubator at 37° C. and 5% CO2. Growth medium was renewed after 7 days of culture. For all experiments, mature twenty-one-day old primary neuronal cultures were used.
Primary hippocampal neurons were generated from E16.5 embryos and cultured for 21 days, as described above (see Primary Cell Culture). For experiment 1 (FIGS. 3A-K), neurons were treated with a saline solution, (R,S)-ketamine (10 μM) (Ketaset, Zoetis, Germany) or (2R,6R)-HNKet (10 μM) (Sigma, Cat #SML1873-25MG) for 0, 2, 12, 24 or 48 hours and compared to untreated controls. For experiment 2 (FIGS. 6A-D), neurons were stimulated with either a saline solution, (2R,6R)-HNKet (10 μM), or a combination of (2R,6R)-HNKet (10 μM) plus nifedipine (10 μM) (Tocris Bioscience, Cat #1075), W-7 hydrochloride (10 μM) (Tocris, Cat #0369), or cyclosporine-A (1 μM) (Tocris, Cat #1101) for 30 minutes, 1, 2, or 6 hours, and compared to untreated controls.
Ketamine treatment regulates Kcnq2 in primary hippocampal neurons To corroborate the previous findings in glutamatergic neurons, it was next examined whether treatment of primary hippocampal neurons with either (R,S)-ketamine or its active metabolite, (2R,6R)-hydroxynorketamine (HNKet), could modify the mRNA expression of the 8 genes tested earlier in glutamatergic neurons. Mouse primary hippocampal neurons are mostly made up of glutamatergic neurons and therefore make a very good model system to further validate the previous in vivo findings. […]

[4] = test system: KCNQ channel (KCNQ2/3, M-current); assay: Ex vivo patch-clamp recording of IM current density in CA1 pyramidal neurons of acute vHipp slices; set-up: species or system mouse; conditions: ketamine 10 mg/kg BW i.p., 36 hours before slice preparation vs saline
mice = assay: Home cage activity (locomotion); format: in vivo, mouse; conditions: 60-min period following treatment and 2 days post injection
Description: The home cage activity was measured with the Mouse-E-Motion infrared-detecting devices (Infra-e-motion, Germany). Mice were single housed in fresh cages, and a metal food tray was employed to hold the devices in place. The base bedding was kept, but extra nesting materials that could conceal the animal were removed. The readout lasted 2 days (post-injection) during which time the animals were not disturbed. Locomotor activity was detected in 5-minute increments and averaged by the hour. The final analysis was applied to the first 60-minute period and the 48 hours (2 days), post injection.

CD-1 mice = assay: Social Box (SB) behavioral response, ketamine response score P-KET (PLS-DA); format: in vivo, mouse
[5] = test system: treatment-resistant patients; conditions: single sub-anesthetic dose; cited from earlier work
Kcnq2 mRNA = Kcnq2 mRNA (qPCR) in the vHipp of CSDS mice, FACS-sorted cells and bulk; conditions: ketamine vs saline

Structure (SMILES): CNC1(c2ccccc2Cl)CCCCC1=O (racemic) [ketamine, (R,S)-ketamine]
- Kcnq2 mRNA fold change (FC) after ketamine treatment ([1]; Ai9+ cells, ketamine 10 mg/kg BW vs saline, 36 hours, p<0.001): 2.2
- mRNA levels of 8 top DEGs ([1]; Ai9+ cells): significantly dysregulated
- mRNA levels of 8 top DEGs ([1]; Ai9- cells): No significant differences
- mRNA expression of Kcnq3 after ketamine treatment ([1]; any of the experiments: scRNA-seq, FACS-sorted cells, primary neurons (Table 2B, FIGS. 17A-C)): no significant differences
- Kcnq2 mRNA ([1]; glutamatergic neurons (tdTomato+) of the vHipp, two days after treatment, ketamine 10, escitalopram 10, retigabine 1 mg/kg/BW): significant increase of Kcnq2 mRNA
- total number of Ai9+ sorted cells, ketamine vs saline ([1]; ketamine 10 mg/kg BW, 36 hours): No significant differences
- bulk mRNA expression of the 8 genes, ketamine vs saline [2]: did not reach statistical significance
- mRNA expression of Hspa8, Snap25, Hsp90ab1, Ndufa4, Ilf2, E2f1 and Kcnq2 ([3]; 2, 12, 24 or 48 hours): significant changes
- Kcnq2 mRNA expression ([3]; 2, 12, 24 or 48 hours vs untreated and saline controls): significant upregulation at all time points tested
- IM current density [4]: significant increase in IM current density
- locomotor activity (home cage), ketamine vs saline (mice): no differences in total activity between groups; also recorded: no significant difference in the locomotion activity
- response to ketamine (P-KET) in the SB vs saline (CD-1 mice; ketamine 10 mg/kg): significant difference
- SB behavioral readouts (PLSDA classifier) (CD-1 mice; ketamine 10 mg/kg/BW i.p.): spent more time exploring in an open area of the SB arena; also recorded: more social and anxiolytic behaviors
- duration of antidepressant response [5]: up to 7 days
- onset of antidepressant response [5]: within hours
- Kcnq2 mRNA expression (Kcnq2 mRNA; bulk mRNA): no significant increase of Kcnq2 mRNA
- Kcnq2 mRNA expression (Kcnq2 mRNA; glutamatergic neurons (tdTomato+)): significantly increased to baseline levels
- Kcnq2 mRNA expression (Kcnq2 mRNA; tdTomato negative cells): no significant differences
